Laboratory results from ChEMBL document CHEMBL1201862, “PubChem BioAssay data set” (2004).
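Five concentrations, 48 hours, 96-well plates. GI50 marks 50% less growth.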 The source made the active and inactive calls. No stated cut-off is given here; in the data, active = GI50 up to about 1.1 µM and inactive = higher.

Columns and labels:
Assay in all cases: NCI tumour cell line growth inhibition, 48 h
COLO 205 = tested on: COLO 205
HCC 2998 = tested on: HCC 2998
HCT-15 = tested on: HCT-15
HL-60 = tested on: HL-60
HOP-62 = tested on: HOP-62
LOX IMVI = tested on: LOX IMVI
NCI-H460 = tested on: NCI-H460
OVCAR-4 = tested on: OVCAR-4
OVCAR-8 = tested on: OVCAR-8
SF-295 = tested on: SF-295
SF-539 = tested on: SF-539
SK-MEL-28 = tested on: SK-MEL-28
SN12C = tested on: SN12C
SNB-19 = tested on: SNB-19
SW-620 = tested on: SW-620
TK-10 = tested on: TK-10
UACC-257 = tested on: UACC-257
MCF7 = tested on: MCF7
NCI/ADR-RES = tested on: NCI/ADR-RES

Compound | GI50 (COLO 205) | GI50 (HCC 2998) | GI50 (HCT-15) [µM] | GI50 (HL-60) | GI50 (HOP-62) | GI50 (LOX IMVI) | GI50 (NCI-H460) | GI50 (OVCAR-4) | GI50 (OVCAR-8) | GI50 (SF-295) | GI50 (SF-539) | GI50 (SK-MEL-28) | GI50 (SN12C) | GI50 (SNB-19) | GI50 (SW-620) | GI50 (TK-10) | GI50 (UACC-257) | GI50 (MCF7) | GI50 (NCI/ADR-RES)
Cc1cc(N(CCC#N)CCC#N)ccc1/N=N/c1ccc(Br)cc1 | > 100 µM (inactive) | > 27 µM (inactive) | 5.56 | > 100 µM (inactive) | 6.41 µM (inactive) | > 21.7 µM (inactive) | > 100 µM (inactive) | > 100 µM (inactive) | > 37.6 µM (inactive) | 21.4 µM (inactive) | 17.8 µM (inactive) | > 100 µM (inactive) | > 36.8 µM (inactive) | 16.1 µM (inactive) | > 48.6 µM (inactive) | 14.3 µM (inactive) | > 100 µM (inactive) | – | –
COc1ccc(C(=O)O)c2c(=O)c3ccccc3[nH]c12 | > 100 µM (inactive) | > 100 µM (inactive) | > 100 | > 100 µM (inactive) | > 31.6 µM (inactive) | > 100 µM (inactive) | > 100 µM (inactive) | > 100 µM (inactive) | > 100 µM (inactive) | > 100 µM (inactive) | > 100 µM (inactive) | > 100 µM (inactive) | > 100 µM (inactive) | > 100 µM (inactive) | > 100 µM (inactive) | > 100 µM (inactive) | > 100 µM (inactive) | – | –
CSC1=N/C(=C\c2ccc(Cl)cc2)C(=O)N1CN1CCOCC1 | 28.9 µM (inactive) | – | 21.6 | – | 23.4 µM (inactive) | 26.4 µM (inactive) | – | 21 µM (inactive) | 21.7 µM (inactive) | > 100 µM (inactive) | – | > 100 µM (inactive) | 47.5 µM (inactive) | 31.8 µM (inactive) | 36.7 µM (inactive) | 27.5 µM (inactive) | – | 5.75 µM (inactive) | 40.6 µM (inactive)
CC(CN(C)C)C(=O)c1ccccc1 (stereo not given) | 31.6 µM (inactive) | 26.6 µM (inactive) | 16.6 | 15.9 µM (inactive) | > 100 µM (inactive) | 14.9 µM (inactive) | > 78.7 µM (inactive) | > 41.1 µM (inactive) | 31.6 µM (inactive) | > 100 µM (inactive) | 51.8 µM (inactive) | > 41.7 µM (inactive) | 17.6 µM (inactive) | > 77.3 µM (inactive) | 12.9 µM (inactive) | > 100 µM (inactive) | > 48.6 µM (inactive) | – | –
CC(=O)c1cccc(NC(=O)C(=O)Nn2c(N)nnc2N)c1 | > 100 µM (inactive) | > 100 µM (inactive) | > 100 | > 100 µM (inactive) | > 100 µM (inactive) | > 100 µM (inactive) | > 100 µM (inactive) | > 100 µM (inactive) | > 100 µM (inactive) | > 100 µM (inactive) | > 100 µM (inactive) | > 100 µM (inactive) | > 100 µM (inactive) | > 100 µM (inactive) | > 100 µM (inactive) | > 100 µM (inactive) | > 100 µM (inactive) | – | –
O=C1/C(=C/c2ccccc2)CCCc2ccccc21 | 18.6 µM (inactive) | – | 16.2 | 15.2 µM (inactive) | 19.2 µM (inactive) | 18.4 µM (inactive) | 16 µM (inactive) | 17.3 µM (inactive) | 20.4 µM (inactive) | 19 µM (inactive) | 17.9 µM (inactive) | 17.4 µM (inactive) | 19.6 µM (inactive) | 14 µM (inactive) | 17.7 µM (inactive) | 19.8 µM (inactive) | 15.7 µM (inactive) | 17.4 µM (inactive) | 20 µM (inactive)
